Patent publication US9060541B2, “Sterilizer for foods” (Kawakami Co., Ltd., priority 2009, dated 2015)
Like-named read-outs stand apart in the source and are kept apart here.

How the values were obtained:
Format in all cases: cell-based
Parameters in all cases: key: D: There is no sterilization effect.; C: There is a sterilization effect in step (1) but no sterilization effect in step (2).; B: There is a sterilization effect up to step (2) but no sterilization effect in step (3).; A: There is a sterilization effect up to step (3)
[1] = tested on: Vibrio parahaemolyticus AQ3815; test: Comparison test of sterilization effects against various food poisoning microbes
[2] = tested on: Vibrio cholerae O1 NIH 41
[3] = tested on: Vibrio cholerae O139 MO45
Vibrio fluvialis KX-F24 = test: Comparison test of sterilization effects against various food poisoning microbes
[4] = tested on: Salmonella serotype Kentucky KX-S149; test: as above
[5] = tested on: Salmonella serotype Enteritidis KX-S148; test: as above
[6] = tested on: Salmonella serotype Anatum KX-S152; test: as above
Shigella sonnei KX-H285 = test: as above
[7] = tested on: Aeromonas hydrophila KX-A428; test: as above
[8] = tested on: Enterotoxigenic Escherichia coli RIMD 0509267; test: as above
[9] = tested on: Lactobacillus plantarum RIMD 1202001; test: as above
[10] = tested on: Clostridium perfringens NCTC8237
[11] = tested on: Campylobacter jejuni subsp. Jejuni JCM2013; test: Comparison test of sterilization effects against various food poisoning microbes
[12] = tested on: Campylobacter coli JCM 2529; test: as above
[13] = tested on: Candida albicans NCPF 3179; test: as above
[14] = Table 7, test microbe solution without yeast extract
[15] = Table 8, yeast extract 4 weight % blended in test microbe solution

CCO [EtOH 30%, ethanol]
Sterilization effect [1, 14]: B | Sterilization effect [1, 15]: C | Sterilization effect [2, 14]: B | Sterilization effect [2, 15]: C | Sterilization effect [3, 14]: B | Sterilization effect [3, 15]: C | Sterilization effect (Vibrio fluvialis KX-F24; [14]): C | Sterilization effect (Vibrio fluvialis KX-F24; [15]): C | Sterilization effect [4, 14]: C | Sterilization effect [4, 15]: C | Sterilization effect [5, 14]: C | Sterilization effect [5, 15]: C | Sterilization effect [6, 14]: C | Sterilization effect [6, 15]: C | Sterilization effect (Shigella sonnei KX-H285; [14]): C | Sterilization effect (Shigella sonnei KX-H285; [15]): C | Sterilization effect [7, 14]: B | Sterilization effect [7, 15]: C | Sterilization effect [8, 14]: D | Sterilization effect [8, 15]: D | Sterilization effect [9, 14]: C | Sterilization effect [9, 15]: D | Sterilization effect [10, 14]: D | Sterilization effect [10, 15]: D | Sterilization effect [11, 14]: B | Sterilization effect [11, 15]: B | Sterilization effect [12, 14]: B | Sterilization effect [12, 15]: B | Sterilization effect [13, 14]: B | Sterilization effect [13, 15]: C

[Na+].[O-]Cl [S.H 150 ppm, sodium hypochlorite]
Sterilization effect [1, 14]: A | Sterilization effect [1, 15]: C | Sterilization effect [2, 14]: A | Sterilization effect [2, 15]: D | Sterilization effect [3, 14]: A | Sterilization effect [3, 15]: D | Sterilization effect (Vibrio fluvialis KX-F24; [14]): A | Sterilization effect (Vibrio fluvialis KX-F24; [15]): D | Sterilization effect [4, 14]: A | Sterilization effect [4, 15]: D | Sterilization effect [5, 14]: A | Sterilization effect [5, 15]: D | Sterilization effect [6, 14]: A | Sterilization effect [6, 15]: D | Sterilization effect (Shigella sonnei KX-H285; [14]): A | Sterilization effect (Shigella sonnei KX-H285; [15]): D | Sterilization effect [7, 14]: A | Sterilization effect [7, 15]: D | Sterilization effect [8, 14]: A | Sterilization effect [8, 15]: D | Sterilization effect [9, 14]: A | Sterilization effect [9, 15]: D | Sterilization effect [10, 14]: A | Sterilization effect [10, 15]: D | Sterilization effect [11, 14]: A | Sterilization effect [11, 15]: C | Sterilization effect [12, 14]: A | Sterilization effect [12, 15]: C | Sterilization effect [13, 14]: A | Sterilization effect [13, 15]: D
